{
  "source": "patent US5756471A",
  "about": "“Use of a sophorolipid to provide free radical formation inhibiting activity or elastase inhibiting activity” (Institut Francais du Petrole, priority 1994, dated 1998)",
  "key": {"[1]": {"tested_on": "human fibroblasts", "assay": "Anti-radical effect on human fibroblasts (UVA)", "conditions": "200 μg/ml, in the absence of UVA"}, "[2]": {"tested_on": "elastase", "assay": "Anti-elastasic activity on human skin section", "text": "The elastin substrate was that which exists in human skin.\nThat result was expected and acted to validate the test."}, "[3]": {"biological_target": "pancreatic elastase (Sus scrofa, UniProt P00772)", "sequence (P00772 27-266)": "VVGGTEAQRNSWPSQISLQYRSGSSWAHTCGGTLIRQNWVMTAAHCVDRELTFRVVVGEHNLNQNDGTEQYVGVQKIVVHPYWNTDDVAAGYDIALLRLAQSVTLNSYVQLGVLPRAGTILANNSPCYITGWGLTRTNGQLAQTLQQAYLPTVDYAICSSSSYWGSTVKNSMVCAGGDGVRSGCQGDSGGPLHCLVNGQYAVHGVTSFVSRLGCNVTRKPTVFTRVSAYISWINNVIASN", "assay": "Anti-elastasic activity, test in semi-solid medium (elastin in gelose)", "type": "biochemical", "conditions": "10 mM", "method": "Principle: Inhibition of the degradation of elastin contained in gelose by elastase\nThe anti-elastase activity of acid sophorolipids was evaluated using a semi-quantitative technique. The enzymatic solution, associated or otherwise with the test compound or with the reference molecule, was deposited in hollows in gelose containing the substrate, elastin.\nThe enzyme diffused into the gelose and digested the elastin.\nThis phenomenon was shown as a lightening of the gelose in the digestion zone, which zone was measured."}, "[4]": {"assay": "Anti-radical activity (EPR method)", "conditions": "hydroxyl radical EPR signal", "method": "The anti-radical effect of crude and acid sophorolipids was evaluated with respect to a free radical derived from oxygen and which is particularly important in pathology, namely the hydroxyl radical. Electron paramagnetic resonance spectrometry (EPR) was used. A molecule which traps free radicals reduces the signal. EPR measurements were carried out using a Brucker ECS106 spectrometer at ambient temperature. The hydroxyl radical (OH^.) was produced by photolysis (UVB) of hydrogen peroxide in aqueous solution. Mannitol was used as a reference molecule (positive control)."}},
  "data": [
    {"smiles": "CC(=O)Oc1c(C)c(C)c2c(c1C)CCC(C)(CCC[C@H](C)CCC[C@H](C)CCCC(C)C)O2", "note": "(some centres unmarked) [Acetate of vitamin E, acetate of vitamin E]", "values": [
      {"measurement": "toxicity for cells", "setting": "[1]", "value": "not toxic"}
    ]},
    {"smiles": "[Cl][Hg][Cl]", "note": "[HgCl2, mercury chloride]", "values": [
      {"measurement": "Degradation of elastin fibres", "setting": "[2]; 0.125 % (w/v)", "value": "None"},
      {"measurement": "inhibition of elastase activity", "setting": "[2]; reference molecule", "value": "dose-dependent manner"},
      {"measurement": "enzymatic inhibition", "setting": "[3]", "value": "total"},
      {"measurement": "Diameter of digestion zone", "setting": "[3]; 6 hours incubation", "value": 0, "unit": "cm"},
      {"measurement": "Diameter of digestion zone", "setting": "[3]; 21 hours incubation", "value": 0, "unit": "cm"}
    ]},
    {"smiles": "OC[C@@H](O)[C@@H](O)[C@H](O)[C@H](O)CO", "note": "[Mannitol]", "values": [
      {"measurement": "trapping activity", "setting": "[4]; 10 mM", "value": 98, "unit": "%"},
      {"measurement": "% anti-radical protection", "setting": "[4]; 0.182% (w/v)", "value": 98, "unit": "%"}
    ]}
  ]
}
